Patent US20210308101A1, “METHODS OF TREATING FIBROMYALGIA” (Aptinyx Inc., priority 2019, published 2021)

Assays:
Format in all cases: in vivo, human
[1] = tested on: subjects with fibromyalgia; experiment: PROMIS Sleep Disturbance short form; conditions: not statistically significant
Description: As used herein, the “PROMIS Sleep Disturbance” short form is Patient Reported Outcomes Measurement Information System Sleep Disturbance—Short Form. The PROMIS Sleep Disturbance short form version 1.0 8b is an 8-item instrument that assesses sleep disturbance in subjects 18 years and older. All 8 questions are based on a 5-point numerical rating scale/Likert scale ranging from 1 to 5 with different categorical responses. Lower scores represent a better quality of life. The total score was calculated by taking the sum of all 8 questions and ranged from 8 to 40. If at least 4 questions were answered, the total score was imputed if missing responses were present. The total score was multiplied by 8/(number of questions answered) and rounded off to the nearest whole number. Otherwise, the total score was set to missing.
The PROMIS Sleep Disturbance short form assessment was collected and analyzed at visits Screening, Day 1, Week 2, Week 4, Week 6, and Follow-up (Week 7). The observed total score, changes from baseline, and changes from treatment periods were summarized using descriptive statistics. Additionally, the treatment group comparisons were analyzed using the paired t-test and nonparametric Wilcoxon signed-rank test. All PROMIS Sleep Disturbance short form data collected and the calculated total score at each visit were presented in a subject listing.

[2] = tested on: subjects with fibromyalgia; experiment: QST: visual stimulation task
Description: To measure non-somatic sensitivity, a series of nonpainful, yet aversive, visual stimuli were presented to each subject. This 10-minute task consisted of 2 different visual stimuli presented in an alternating block design. The control stimulus was a solid color background, whereas experimental stimulus was a flashing annulus checkerboard. These 2 stimuli were interleaved into independent 8- to 30-second blocks throughout the duration of the task. Subjects viewed the stimuli on a calibrated liquid crystal display computer screen designed for high resolution image presentation. Stimuli were presented at varying brightness levels and/or color patterns, and each stimulus presentation was rated on scales of sensory intensity and unpleasantness. […] A redacted version of this task was administered during fMRI.
QST data were analyzed at the University of Michigan CPFRC. Dependent variables were the MAST derived outcomes (Pain50, pressure pain threshold, pain tolerance, and pain ratings at 2 kg/cm2), algometry-derived pressure pain thresholds (mean of three trials) at each anatomical site, average cuff intensity ratings (mean of ratings at all stimulus levels during the ascending or random sequences), and average visual task unpleasantness and brightness intensity ratings (mean of ratings at all stimulus levels). Practice data were not analyzed. Overall pain intensity and unpleasantness NRS scores as well as stimulus response curves for each test were assessed during post hoc analyses. Data points displaying measurement artefacts, including device malfunction or user error, were set to missing. Single subject QST variables were analyzed using paired t-tests and/or nonparametric Wilcoxon signed-rank tests in SPSS or R.

[3] = tested on: subjects with fibromyalgia; experiment: Quantitative Sensory Testing, all outcomes
Description: Other efficacy assessments, as used herein, include “Multi-Modal Automated Sensory Testing” (MAST) Pressure Pain Sensitivity, “Cuff Algometry,” and “Visual Stimulation Task.”
The multi-modal automated sensory testing (MAST) system was used to measure localized pressure sensitivity at an asymptomatic, neutral body site, the thumbnail. The MAST system is a nonsignificant-risk investigational device that applies a computer-controlled mechanical stimulation at precisely controlled intensity levels and durations. The validity in the measurement of centrally-mediated pain sensitivity has been discussed extensively. The MAST system delivered an ascending series of computer-controlled, 5-second pressures at 20-second intervals (with 20% jitter) to the subject's thumbnail bed, beginning at 0.25 to 0.5 kg/cm^2 and increasing in steps of 0.25 to 0.50 kg/cm^2. Pain intensity was rated after each pressure on a 0 to 100 NRS. Testing was terminated when the first of 3 possible stop conditions were met: 1) subject reached her personal pain tolerance and requested to stop the test, 2) subject reported a pain intensity rating of >80, or 3) the maximum pressure of 10 kg/cm^2 was delivered. A regression model was used fit the stimulus-response data obtained from this procedure and interpolate Pain50, defined as the pressure intensity that evokes a moderate level of suprathreshold pressure pain (i.e., 50/100). Additional derived variables included: 1) Pressure pain threshold, defined as the first pressure in a series of at least 2 consecutive pressures that elicited a NRS pain rating >0; 2) slope of the stimulus-response function as a measure of the rate of pain increase; and 3) pressure pain tolerance, defined as the last pressure recorded in the stimulus response profile. […]
Localized pressure pain sensitivity was also measured bilaterally at 3 additional body regions: trapezius, wrist, and patella. […] Sensitivity was measured using a digital algometer with a 1-cm^2 flat rubber probe. […]
Large volume, deep tissue pressure sensitivity was assessed by cuff algometry. […]

## CC(C)C(=O)N1CCC[C@]12CN([C@H](C(N)=O)[C@@H](C)O)C2=O [NYX-2925, (2S, 3R)-3-hydroxy-2-((R)-5-isobutyryl-1-oxo-2,5-diazaspiro[3.4]octan-2-yl)butanamide]
[1]; Week 2 (placebo) to Week 4 (NYX-2925 20 mg)
  PROMIS Sleep Disturbance short form score, mean change: −0.9
[1]; Week 2 (placebo) to Week 6 (NYX-2925 200 mg)
  PROMIS Sleep Disturbance short form score, mean change: −1.6
[2]; NYX-2925 200 mg (Week 6)
  overall visual task unpleasantness: 42.31±29.20
  rating of unpleasantness evoked by the brightest visual stimulus: 59.97±35.46 NRS
[2]; Week 7 follow-up, p=0.037 vs 200 mg
  rating of unpleasantness evoked by the brightest visual stimulus: 53.13±36.88 NRS
[2]; Week 7 follow-up, p=0.040 vs 200 mg
  overall visual task unpleasantness: 33.85±28.07
[3]; NYX-2925 20 mg
  effects on QST relative to placebo: no significant or marginal effects
[3]; NYX-2925 20 mg versus NYX-2925 200 mg
  differences on QST between doses: no significant or marginal differences
[3]; NYX-2925 200 mg
  effects on QST outcomes relative to placebo, other than right trapezius threshold: no additional significant or marginal effects
